These results are taken from patent publication US4367237A, “Prostacyclin analogues” (priority 1978, dated 1983).

The subject of data set [1] is women in the early stages of pregnancy. The data set can be described thus: Clinical: termination of pregnancy. Type of data set: in vivo, human. As for the experimental part:
One pessary containing 1 mg of (13E)-(6RS,9α,11α,15S)-6,9-epithio-11,15-dihydroxyprost-13-enoic acid methyl ester (prepared as described in Example 21) was administered vaginally two to five times at one- to three-hour intervals to fifteen women aged from twenty to forty years in the early stages of pregnancy.
One to three tablets containing 0.25 mg of (13E)-(6RS,9α,11α,15R)-6,9-epithio-11,15-dihydroxy-16,16-dimethylprost-13-enoic acid methyl ester (prepared as described in Example 17) were administered orally one to five times to seven women aged from twenty-five to thirty years in the early stages of pregnancy.

Data set [2] can be described thus: LD50 (Acute toxicity tests). The note with it: mouse, in vivo, iv; injected intravenously into mice. How it is done:
The compounds are injected intravenously into mice.

Data set [3] deals with platelet-rich plasma of rats. The data set can be described thus: PAI (Inhibitory activity on blood platelet aggregation), adenosine diphosphate-induced. Type of data set: cell-based, rat. The note with it: 50% inhibition of ADP-induced aggregation.
The next data set concerns stress ulceration. The data set is described as follows: GUI (Inhibitory activity on gastric ulceration), stress ulceration. Type of data set: in vivo, rat. The note with it: stress ulceration of rats, oral, water bath 19° C. for 6 hours. As for the experimental part: (§1) The results of standard laboratory tests are shown below in Table 1, wherein the various activities are shown relative to PGE1.
The compounds produce an inhibition of stress ulceration by oral administration in the stress ulceration of rats produced according to the method of Takagi and Okabe [Jap. J. Pharmc., 18, 9-18 (1968)], i.e. by soaking rats in a water bath at 19° C. for 6 hours.

In data set [4] the test system is women two or three days before the expected date of menstruation. The data set is described as follows: Clinical: beginning of menstruation. It counts as in vivo, human. How it is done:
One pessary containing 1 mg of (13E)-(6RS,9α,11α,15S)-6,9-epithio-11,15-dihydroxyprost-13-enoic acid methyl ester (prepared as described in Example 21) was administered vaginally one to five times at one- to three-hour intervals to fifteen women aged from twenty to forty years two or three days before the expected date of menstruation.
One pessary containing 0.5 mg of (13E)-(6RS,9α,11α,15R)-6,9-epithio-11,15-dihydroxy-16,16-dimethylprost-13-enoic acid methyl ester (prepared as described in Example 21) was administered vaginally one to three times at one- to three-hour intervals to three women aged twenty or twenty-one years two or three days before the expected date of menstruation.
One to three tablets containing 0.5 mg of (13E)-(6RS,9α,11α,15S)-6,9-epithio-11,15-dihydroxyprost-13-enoic acid methyl ester (prepared as described in Example 17) were administered orally to five women aged from twenty to twenty-two years two or three days before the expected date of menstruation.

The subject of the next data set is blood pressure. The data set can be described thus: BP (Hypotensive activity). Type of data set: in vivo. The note with it: intravenous, allobarbital-anaesthetised dog.
Text: as §1
The compounds produce falls in blood pressure when administered intravenously to the allobarbital-anaesthetised dog.

Data set [5] concerns human blood platelet aggregation. The note with it: J.C.S. Chem. Comm., 375 (1978); cited from earlier work.
For a further data set, the system named is uterine contraction. The data set is described as follows: UCA (Uterine contraction activity). Type of data set: in vivo, pregnant female rat. The note with it: for UCA (Uterine contraction activity), relative to PGE1: pregnant female rat, intravenous, 20th day of gestation.
Text: as §1
The compounds stimulate uterine contraction in the pregnant female rat when administered intravenously on the 20th day of gestation.
Moreover, other compounds of the present invention [prepared as hereafter described in the Examples] other than the above compounds for which results are given in Table 1 stimulate uterine contraction when administered intravenously to the pregnant female rat on the 20th day of gestation at doses of 0.2-100 μg/kg animal body weight.

The subject of a further data set is diarrhoea. The data set can be described thus: Diarrhoea (Diarrhoea-producing activity). The note with it: diarrhoea in 50% of mice, oral. It counts as in vivo.
Text: as §1
The compounds produce diarrhoea in 50% of mice by oral administration.

The next data set relates to gastric acid secretion. The data set is described as follows: GSI (Inhibitory activity on gastric acid secretion). It counts as in vivo. The note with it: increase in gastric acid pH from 2.0-2.5 to at least 4.0 in 50% of pentagastrin-treated rats, perfused intravenously.
Text: as §1
The compounds produce an increase in gastric acid pH from 2.0-2.5 to at least 4.0 in 50% of pentagastrin-treated rats when perfused intravenously.

Data set [6] has as its system isolated cat coronary artery. The note with it: J.C.S. Chem. Comm., 375 (1978); cited from earlier work.
In data set [7] the test system is women in the expired stage of pregnancy. The data set is described as follows: Clinical: induction of labour. Type of data set: in vivo, human. The note with it: pessary 0.2 mg, vaginal, one to three times at one- to three-hour intervals; five women. As for the experimental part:
One pessary containing 0.2 mg of (13E)-(6RS,9α,11α,15S)-6,9-epithio-11,15-dihydroxyprost-13-enoic acid methyl ester (prepared as described in Example 21) was administered vaginally one to three times at one- to three-hour intervals to five women aged from twenty to forty years in the expired stage of pregnancy.

The test system of data set [8] is blood platelet aggregation of the human. The note with it: cited from earlier work.
The subject of another data set is artery. The note with it: cited from earlier work.
Another data set has as its system blood platelets. The note with it: cited from earlier work.

Each structure is given as a SMILES string. Structures can show the parent of a compound that is named as a salt. A value given as a limit tells only on which side of the number the result lay.

Regarding `CCCCC[C@H](O)/C=C/[C@@H]1[C@H]2CC(CCCCC(=O)OC)S[C@H]2C[C@H]1O` (mixture of isomers) [A, (13E)-(6RS,9α,11α,15S)-6,9-epithio-11,15-dihydroxyprost-13-enoic acid methyl ester], in [1] (pessary 1 mg, vaginal, two to five times, fifteen women), the termination of pregnancy entry was “confirmed in all the cases”. Further, the LD50 in [2] is 100 mg/kg. In addition, the “PAI (Inhibitory activity on blood platelet aggregation), relative to PGE1” value in data set [3] was 0.03. Besides, in the data set on stress ulceration, the “GUI (Inhibitory activity on gastric ulceration), relative to PGE1” value was less than 0.5. The beginning of menstruation result in [4] (one to three tablets 0.5 mg, oral, five women) is “confirmed in all the cases”; in data set [4] (pessary 1 mg, vaginal, one to five times, fifteen women), “confirmed in all the cases”. In the data set on blood pressure, the “BP (Hypotensive activity), relative to PGE1” value (shortened to “BP … relative to PGE1”) is reported as 0.2. The “activity on human blood platelet aggregation” value in data set [5] is on record as “inhibitory activity on human blood platelet aggregation”. For the same compound, the “UCA (Uterine contraction activity), relative to PGE1” value (shortened to “UCA … relative to PGE1”) with uterine contraction is reported as 11.5. For the same compound, the “Diarrhoea (Diarrhoea-producing activity), relative to PGE1” value (“Diarrhoea … relative to PGE1” below) with diarrhoea amounted to 0.072. In addition, the “GSI (Inhibitory activity on gastric acid secretion), relative to PGE1” value in the data set on gastric acid secretion was less than 0.1. The “activity on isolated cat coronary artery” value in data set [6] is on record as “vasoconstricting activity on isolated cat coronary artery”. In addition, the induction of labour entry in [7] was “confirmed in all the cases”.

`CCCCC[C@H](O)/C=C/[C@@H]1[C@H]2CC(CCCCC(=O)O)S[C@H]2C[C@H]1O` (mixture of isomers) [B, (13E)-(6RS,9α,11α,15S)-6,9-epithio-11,15-dihydroxyprost-13-enoic acid]: the “PAI (Inhibitory activity on blood platelet aggregation), relative to PGE1” value in [3] turned out to be 0.038. Further, the “GUI (Inhibitory activity on gastric ulceration), relative to PGE1” value in the data set with stress ulceration is less than 0.5. For the same compound, the “BP … relative to PGE1” value in the data set with blood pressure is 0.2. Further, in data set [5], the “activity on human blood platelet aggregation” value is given as “inhibitory activity on human blood platelet aggregation”. Moreover, in the data set with uterine contraction (rat, in vivo), the “stimulatory activity on uterine contraction (in words)” value is recorded as “selective strong stimulatory activity on uterine contraction”. Further, the “UCA … relative to PGE1” value in the data set on uterine contraction was 10. Moreover, the “Diarrhoea … relative to PGE1” value with diarrhoea is less than 0.1. In addition, in the data set with gastric acid secretion, the “GSI (Inhibitory activity on gastric acid secretion), relative to PGE1” value was less than 0.1. Besides, the “activity on isolated cat coronary artery” value in [6] was “vasoconstricting activity on isolated cat coronary artery”.

For `CCCCC(C)(C)[C@H](O)/C=C/[C@@H]1[C@H]2CC(CCCCC(=O)OC)S[C@H]2C[C@H]1O` (mixture of isomers) [D, (13E)-(6RS,9α,11α,15R)-6,9-epithio-11,15-dihydroxy-16,16-dimethylprost-13-enoic acid methyl ester], the termination of pregnancy entry in data set [1] (one to three tablets 0.25 mg, oral, one to five times, seven women) is “confirmed in all the cases”. In addition, the LD50 in data set [2] was 25 mg/kg. The “PAI (Inhibitory activity on blood platelet aggregation), relative to PGE1” value in data set [3] was determined as 0.006. Further, the “GUI (Inhibitory activity on gastric ulceration), relative to PGE1” value in the data set with stress ulceration is less than 0.5. In data set [4] (pessary 0.5 mg, vaginal, one to three times, three women), the beginning of menstruation result is listed as “confirmed in all the cases”. Further, the “BP … relative to PGE1” value in the data set with blood pressure is reported as less than 0.1. Besides, in the data set with uterine contraction, the “UCA … relative to PGE1” value is listed as 23.1. For the same compound, the “Diarrhoea … relative to PGE1” value with diarrhoea is 0.095. Moreover, in the data set with gastric acid secretion, the “GSI (Inhibitory activity on gastric acid secretion), relative to PGE1” value was less than 0.3.

In the case of `CCCC[C@H](C)[C@H](O)/C=C/[C@@H]1[C@H]2CC(CCCCC(=O)OC)S[C@H]2C[C@H]1O` (mixture of isomers) [E, (13E)-(6RS,9α,11α,15S,16S)-6,9-epithio-11,15-dihydroxy-16-methylprost-13-enoic acid methyl ester], the “PAI (Inhibitory activity on blood platelet aggregation), relative to PGE1” value in data set [3] is listed as 0.21. The “GUI (Inhibitory activity on gastric ulceration), relative to PGE1” value in the data set on stress ulceration is less than 0.5. In the data set on blood pressure, the “BP … relative to PGE1” value amounted to 0.55. The “UCA … relative to PGE1” value in the data set on uterine contraction worked out at 27.3. Besides, in the data set on diarrhoea, the “Diarrhoea … relative to PGE1” value is listed as 0.514. Moreover, the “GSI (Inhibitory activity on gastric acid secretion), relative to PGE1” value with gastric acid secretion was less than 0.3.

In the case of `CCCCC1([C@H](O)/C=C/[C@@H]2[C@H]3CC(CCCCC(=O)OC)S[C@H]3C[C@H]2O)CCC1` (stereo partly drawn) [C, (13E)-(6RS,9α,11α,15R)-6,9-epithio-11,15-dihydroxy-15-(1-butylcyclobutyl)-16,17,18,19,20-pentanorprost-13-enoic acid methyl ester], in data set [2], the LD50 turned out to be 100 mg/kg. Further, the “PAI (Inhibitory activity on blood platelet aggregation), relative to PGE1” value in [3] is listed as 0.011. For the same compound, in the data set on stress ulceration, the “GUI (Inhibitory activity on gastric ulceration), relative to PGE1” value is listed as less than 0.5. The “BP … relative to PGE1” value with blood pressure is less than 0.1. Further, in the data set with uterine contraction, the “UCA … relative to PGE1” value is listed as 15.8. Besides, the “Diarrhoea … relative to PGE1” value with diarrhoea is on record as less than 0.02. In addition, the “GSI (Inhibitory activity on gastric acid secretion), relative to PGE1” value in the data set on gastric acid secretion came out at 0.3.

For the compound `CCCCC[C@H](O)/C=C/[C@H]1[C@H](O)CC(=O)[C@@H]1CCCCCCC(=O)O` [PGE1, reference compound], the “BP … relative to PGE1” value in the data set on blood pressure was 1. The “UCA … relative to PGE1” value in the data set with uterine contraction is recorded as 1. Also, the “Diarrhoea … relative to PGE1” value in the data set with diarrhoea is 1. Also, in the data set on gastric acid secretion, the “GSI (Inhibitory activity on gastric acid secretion), relative to PGE1” value was 1.

With `CCCCC[C@H](O)/C=C/[C@@H]1[C@H]2C/C(=C/CCCC(=O)OC)O[C@H]2C[C@H]1O` [PGI2 methyl ester, reference compound], in [3], the “PAI (Inhibitory activity on blood platelet aggregation), relative to PGE1” value is 85. Also, the “BP … relative to PGE1” value in the data set with blood pressure was 20. In addition, the “UCA … relative to PGE1” value in the data set with uterine contraction worked out at 0.5. In addition, the “Diarrhoea … relative to PGE1” value with diarrhoea is listed as less than 0.1.

Turning to `CCCCC[C@H](O)/C=C/[C@@H]1[C@H]2C/C(=C/CCCC(=O)O)O[C@H]2C[C@H]1O` [PGI2, (5Z,13E)-(9α,11α,15S)-6,9-epoxy-11,15-dihydroxyprosta-5,13-dienoic acid], in data set [8], the “inhibition of arachidonic acid-induced blood platelet aggregation” value is given as “strongly inhibits”. Also, the “activity on the artery” value with artery is given as “relaxing activity on the artery”.

As to `CCCCC[C@H](O)/C=C/[C@@H]1[C@H]2CC(CCCCC(=O)O)S[C@H]2C[C@H]1O` (stereo partly shown) [sodium salt], in data set [5], the “activity on human blood platelet aggregation” value was “inhibitory activity on human blood platelet aggregation”. The “activity on isolated cat coronary artery” value in data set [6] is on record as “vasoconstricting activity on isolated cat coronary artery”.

`CCCCC[C@H](O)/C=C/[C@H]1O[C@H]2C[C@H](O2)[C@@H]1C/C=C\CCCC(=O)O` [thromboxane A2]: the “activity on blood platelets” value in the data set on blood platelets is recorded as “aggregating activity on blood platelets”. Also, the “activity on the artery” value with artery is given as “contracting activity on the artery”.

The LD50 is the dose at which mortality reaches 50%. Low readings indicate greater toxicity, high ones lower toxicity.
